# Test results taken from patent publication US20090012054A1, “Cephem Compounds and Use as Antimicrobial Agents” (priority 2006, published 2009).
# Read-outs that look alike come from different tables or passages of the source.
# What was measured:
# Assay in all cases: In vitro antibacterial activity (MIC), two-fold agar-plate dilution method
# Type in all cases: cell-based
# [1] = tested on: Pseudomonas aeruginosa 22027; conditions: Pseudomonas aeruginosa 22027, metallo β-lactamase producing strain, HI-agar, 37° C. for 20 hours
# Method: (§1) Now in order to show the utility of the object compound [I], the test data on MIC (minimal inhibitory concentration) of a representative compound of this invention are shown in the following.
# (§2) In vitro antibacterial activity was determined by the two-fold agar-plate dilution method as described below.
# (§3) One loopful of an overnight culture of each test strain in Trypticase-soy broth (10^6 viable cells per ml) was streaked on heart infusion agar (HI-agar) containing graded concentrations of representative test compound, and the minimal inhibitory concentration (MIC) was expressed in μg/ml after incubation at 37° C. for 20 hours.
# [2] = tested on: Pseudomonas aeruginosa 19136; conditions: Pseudomonas aeruginosa 19136, metallo β-lactamase producing strain, HI-agar, 37° C. for 20 hours
# Method: as §1, §2, §3
# [3] = tested on: Pseudomonas aeruginosa FP 1380; conditions: Pseudomonas aeruginosa FP 1380, AmpC β-lactamase overproduced strain, HI-agar, 37° C. for 20 hours
# Method: as §1, §2, §3
compound,measurement,setting,value
"7β-[(Z)-2-(5-amino-1,2,4-thiadiazol-3-yl)-2-(1-carboxy-1-methylethoxyimino)acetamido]-3-{3-[1-(3-aminopropyl)guanidino]-2,3-dihydro-5-(1H-imidazo[1,2-b]pyrazolio)}methyl-3-cephem-4-carboxylate sulfate [Compound (A)]",MIC,[1],8 µg/mL
same,MIC,[2],2 µg/mL
same,MIC,[3],0.5 µg/mL
"CC(C)(O/N=C(\C(=O)N[C@@H]1C(=O)N2C(C(=O)O)=C(C[n+]3cc(N(CCN)C(=N)N)c4n3CCCN4)CS[C@H]12)c1nsc(N)n1)C(=O)O.O=S(=O)([O-])O [Compound (B), 7β-[(Z)-2-(5-amino-1,2,4-thiadiazol-3-yl)-2-(1-carboxy-1-methylethoxyimino)acetamido]-3-{3-[1-(2-aminoethyl)guanidino]-4,5,6,7-tetrahydro-1-(pyrazolo[1,5-a]pyrimidinio)}methyl-3-cephem-4-carboxylate sulfate]",MIC,[1],8 µg/mL
same,MIC,[2],2 µg/mL
same,MIC,[3],0.5 µg/mL
"C[C@H]1[C@H](NC(=O)/C(=N\OC(C)(C)C(=O)O)c2csc(N)n2)C(=O)N1S(=O)(=O)O [Aztreonam, reference compound]",MIC,[1]; read-out: MIC,32 µg/mL
same,MIC,[2]; read-out: MIC,4 µg/mL
same,MIC,"[3]; FP1380, read-out: MIC",64 µg/mL
